Tests used:
Type in all cases: cell-based
L6-myotubes [1] = experiment: Glucose uptake in differentiated L6-myotubes (3H-2-deoxyglucose), compared to isoproterenol; conditions: agonist 1×10^−5 M, 50 nM 3H-2-deoxyglucose
Method in brief: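 Serum-starved differentiated L6 myotubes stimulated with agonist at 1×10^−5 M for 1 h 40 min, re-dosed in glucose-free medium for 20 min, then given 50 nM ^3H-2-deoxyglucose for 10 min. Uptake read by β-counting of NaOH lysates; activity expressed relative to isoproterenol.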

L6-myotubes [2] = experiment: Measurement of intracellular cAMP levels in differentiated L6 cells (alpha screen cAMP kit), compared to isoproterenol; conditions: Rattus norvegicus, L6, 0.25 h, agonist 1×10^−5 M, 15 min, read-out: Biological example 2: intracellular cAMP levels, activity compared to that of isoproterenol
Method in brief: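 L6 myoblasts were differentiated into myotubes over 7 days in 2% FBS, then serum-starved overnight. Agonist at 1×10^−5 M final was applied for 15 min in HBSS with 1% BSA, 5 mM HEPES and 1 mM IBMX, pH 7.4. After ethanol extraction and lysis, cAMP was quantified by AlphaScreen, with activity expressed relative to isoproterenol.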

L6-myotubes [3] = experiment: Glucose uptake in L6-myotubes in the presence of the β2-antagonist ICI-118,551; conditions: differentiated L6-myotubes; compound 1×10^−5 M; ICI-118,551 1×10^−5 M
Protocol: L6-myoblasts were grown in Dulbecco's Modified Eagle's Medium (DMEM) containing 1 g/L glucose supplemented with 10% fetal bovine serum, 2 mM L-Glutamine, 50 U/mL penicillin, 50 μg/mL streptomycin and 10 mM HEPES. Cells were plated at 1×10^5 cells per mL in 24-well plates. After reaching 90% confluence the cells were grown in medium containing 2% FBS for 7 days where upon cells differentiated into myotubes.
Differentiated L6-myotubes were serum-starved overnight in medium containing 0.5% fatty-acid free BSA and were incubated with the β2-adrenergic receptor antagonist ICI-118,551 at a final concentration of 1×10^−5 M for 30 min. The cells were stimulated with a compound of the invention, at a final concentration of 1×10^−5 M. After 1 h 40 min the cells were washed twice with warm, glucose free medium or PBS and additional portions of the compound of the invention and the antagonist were added. After 20 min the cells were exposed to 50 nM ^3H-2-deoxyglucose for 10 min before washed with ice cold glucose free medium or PBS three times and lysed with 0.2 M NaOH, 400 μL/well, for 1 h at 60° C. The cell lysate was mixed with 4 mL scintillation buffer (Emulsifier Safe, Perkin Elmer) and the radioactivity was detected in a β-counter (Tri-Carb 4810TR, Perkin Elmer). The activity for each compound is compared to that of isoproterenol.

| Structure (SMILES) | Biological example 1: glucose uptake, activity compared to that of isoproterenol (L6-myotubes [1]) | Emax at 10 µM (L6-myotubes [2]) [%] | Biological example 3: glucose uptake in the presence of the β2-antagonist ICI-118,551, activity compared to that of isoproterenol (L6-myotubes [3]) |
| --- | --- | --- | --- |
| CC(C)(C[C@H]1CC[C@H](N)CC1)NC[C@H](O)c1cncc(F)c1 [Example 85, (R)-2-((1-((1r,4R)-4-Aminocyclohexyl)-2-methylpropan-2-yl)amino)-1-(5-fluoropyridin-3-yl)ethan-1-ol] | + + + | < 25 | − (less than 25%) |
| COC(=O)[C@H]1CC[C@H](CC(C)(C)NC[C@H](O)c2cccc(F)c2)CC1 [Example 107, Methyl (1R,4r)-4-(2-(((R)-2-(3-Fluorophenyl)-2-hydroxyethyl)amino)-2-methylpropyl)cyclohexane-1-carboxylate] | + + + | < 25 | − (less than 25%) |
| COC(=O)[C@H]1CC[C@@H](CCC(C)(C)NC[C@H](O)c2cncc(F)c2)CC1 [Example 112, Methyl (1S,4s)-4-(3-(((R)-2-(5-fluoropyridin-3-yl)-2-hydroxyethyl)amino)-3-methylbutyl)cyclohexane-1-carboxylate] | + + + | 25 to 50 | − (less than 25%) |
| COC(=O)[C@H]1CC[C@H](CCC(C)(C)NC[C@H](O)c2cncc(F)c2)CC1 [Example 116, Methyl (1R,4r)-4-(3-(((R)-2-(5-fluoropyridin-3-yl)-2-hydroxyethyl)amino)-3-methylbutyl)cyclohexane-1-carboxylate] | + + + | < 25 | − (less than 25%) |
